# Test results as given in patent publication US20070270349A1, “Glutathione Derivatives and Their Uses for the Treatment of Viral Diseases” (priority 2003, published 2007).
# What was measured:
# [1] = system: erythrocytes (RBCs); assay: Entry into erythrocytes, oil-stop method; type: in vitro ADME; conditions: calculated in the first 30 minutes, 37° C., 10% hematocrit
# Experimental: The entry of GSH and GSH-C4 into erythrocytes (RBCs) at 37° C. in microcentrifugal test-tubes was measured using the oil-stop method. […] A Manual of Biochemical Methods, 3rd edn. Grune & Stratton, New York).
# [2] = system: HSV-1; assay: HSV-1 replication in Vero cells, plaque assay; type: cell-based, human herpes simplex virus type 1
# Experimental: (§1) The Senday virus (SV) belonging to the Paramyxovirus family is a virus with non-segmented single stranded RNA of negative polarity. This virus was reproduced by inoculation in the allantoic liquid of embryonated chicken eggs. The monolayers of MDCK cells were infected with SV [3 hemagglutinating units (HAU)×10^5 cells]. After incubation for 1 hour at 37° C. (adsorption period), the unadsorbed viruses were removed, the monolayers were washed and then incubated in a complete medium containing 2% of bovine fetal serum. The production of viruses by infected cells was determined in the cellular supernatants at different intervals of time from infection (p.i.), measuring the hemagglutinating activity towards type 0 Rh+ human erythrocytes (HAU), according to standard procedures. […] Monkey kidney cells (VERO) were grown in RPMI, to which 5% of serum was added. The human herpes simplex virus type 1 (HSV-1), clinically isolated (TV1), was grown and titered in the Vero cells as described in Palamara, A. T., Perno, C. F., Ciriolo, M. R., Dini, L., Balestra, E., D'Agostini, C. et al. (1995). […] Antiviral Research 27, 237-253.
# (§2) To obtain the viral infection, monolayers of Vero cells were infected with HSV-1 at a MOI (multiplicity of infection) of 0.03 PFU/cell. After incubation for 1 hour at 37° C. (adsorption period) the unadsorbed viruses were removed, the monolayers were washed and then incubated with culture medium containing 2% bovine fetal serum. GSH-C4 was added in identical doses to the ones indicated above immediately after the adsorption period and was maintained in the culture medium until completion of the experiments. Supernatants from infected cells were collected at different times after contact with the virus and tested for the ability to form plaques in Vero cells, using a standard titration method. Similar experiments were also conducted on HSV-1 TK-D305.
# Vero cells were infected for 1 hour with HSV-1 at a MOI of 0.03 PFU/cell. After repeated washings, GSH-C4 was added at different concentrations (range 0-10 mM) to the cell cultures. Replication of the viruses was tested in the Vero cells 48 h after infection using the plaque technique.
# [3] = system: Sendai virus; assay: Sendai virus replication in MDCK cells, hemagglutinating activity in supernatant; type: cell-based; conditions: for EC50 / inhibition at 5000 µM: Respirovirus muris; for EC50: 48 h, MDCK cells, read-out: 50% of inhibition of viral reproduction (EC50); for inhibition at 5000 µM: MDCK, 5 mM
# Experimental: To measure the behavior of GSH-C4 derivatives in infected cells, Madin Darby canine kidney cells (MDCK) were grown in RPMI 1640 to which 5% of heat-decomplemented bovine fetal serum (Flow Laboratories, Italy) was added.
# as §1
# MDCK cells were infected for 1 hour with 3 hemagglutinating units (HAU)×10^5 cells. The cells were washed and then cultivated in the presence of different concentrations of GSH-C4 (range 0-7.5 mM) for 2 days. Production of the virus was assayed at 24 hours (panel A) and 48 hours (panel B) measuring the hemagglutinating activity on type 0 Rh+ human erythrocytes.
# [4] = system: glutathione S-transferase (E.C.2.5.1.18.); assay: Glutathione S-transferase activity in hemolyzed human blood with GSH or GSH-C4 as substrate; type: biochemical; conditions: 2 mM substrate
# Experimental: (§3) Enzymatic determinations of the activity of glutathione peroxidase (E.C.1.11.1.9.) and glutathione S-transferase (E.C.2.5.1.18.) in hemolyzed human blood in the presence of GSH and of its derivative GSH-C4 were carried out according to the methods of Beutler (Beutler, E., 1984, Red Cell Metabolism. A Manual of Biochemical Methods, 3rd edn. Grune & Stratton, New York). GSH and GSH-C4 were then oxidized by incubation at ambient temperature in the presence of 35% (v/v) H2O2 to respectively obtain GSSG and C4-GSSG-C4.
# (§4) The enzymatic activities of glutathione peroxydase and glutathione S-transferase were measured in hemolyzed human blood in the presence of GSH-C4 or GSH 2 mM as substrates. […] Moreover, GSH and GSH-C4 were chemically oxidized in the corresponding disulphide forms (GSSG and C4-GSSG-C4).
# [5] = system: uninfected Madin Darby canine kidney cells (MDKC); assay: Toxicity on confluent monolayers of uninfected MDCK cells (morphology, Trypan blue vitality, cell count); type: cell-based; conditions: for toxic effect or change in cell morphology: uninfected MDCK monolayers, concentrations used in the experiments
# Experimental: The toxicity was measured on the basis of microscopic examinations of cellular morphology, of measurement of cellular vitality after staining with Trypan blue and of the cell count. All compounds were diluted in RPMI, the final pH of the solution was approximately 7-7.3.
# [6] = molecular target: T1, glutathione peroxidase (E.C.1.11.1.9.) (Homo sapiens, UniProt P07203); assay: Glutathione peroxidase activity in hemolyzed human blood with GSH or GSH-C4 as substrate; type: biochemical; conditions: 2 mM substrate
# T1 construct: measured in hemolyzed human blood; from tissue; host or cells: hemolyzed human blood
# T1 sequence (P07203 1-203): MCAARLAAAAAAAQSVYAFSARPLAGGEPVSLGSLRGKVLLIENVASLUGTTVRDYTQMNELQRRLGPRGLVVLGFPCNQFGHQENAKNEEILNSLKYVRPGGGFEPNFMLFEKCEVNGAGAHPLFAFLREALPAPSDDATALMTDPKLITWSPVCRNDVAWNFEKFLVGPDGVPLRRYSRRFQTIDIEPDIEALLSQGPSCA
# Experimental: as §3, §4
# [7] = system: uninfected Vero cells; assay: Toxic effects in uninfected Vero cells; type: cell-based, Monkey
# [8] = system: HSV-1 TK−; assay: HSV-1 TK- (Δ305) replication in Vero cells, plaque forming units; type: cell-based, human herpes simplex virus type 1
# Experimental: as §2
# Vero cells were infected for 1 h at 37° C. with the strain Δ305 and then kept in culture in the presence of different concentrations of GSH-C4. The production of viruses was measured 24, 48 and 72 h after infection by assay of the plaque forming units.
structure (smiles),measurement,setting,value
"N[C@@H](CCC(=O)N[C@@H](CS)C(=O)NCC(=O)O)C(=O)O [GSH, γ-glutamylcysteinylglycine, reference compound]",entry speed into erythrocytes,[1],2.33 nmol/min/ml RBCs
same,complete inhibition of the virus,[2]; 10 mM,does not induce complete inhibition of the virus
same,reduction in virus replication,[2]; 10 mM,around 2.5 log
same,EC50,[3],7.6 mM
"CCCC(=O)N[C@@H](CCC(=O)N[C@@H](CS)C(=O)NCC(=O)O)C(=O)O [GSH-C4, n-butanoyl γ-glutamylcysteinylglycine]",glutathione S-transferase activity compared to that in the presence of GSH,[4],3.5%
same,"toxicity for the cells, microscopic examination of the monolayers","[5]; 7.5 mM, MDCK monolayers of the Sendai experiment",without being toxic for the cells
same,toxic effect or change in cell morphology,[5],do not induce any toxic effect or change in cell morphology
same,entry speed into erythrocytes,[1],4.33 nmol/min/ml RBCs
same,virus particles in the cellular supernatant,"[2]; 10 mM, 48 h after infection",no virus particles were detected
same,inhibition of virus replication 72 h after infection,[2]; 72 h after infection,same inhibition
same,protection from cytopathic effects induced by the virus,[2]; HSV-1 infected Vero cells,protects the Vero cells from the cytopathic effects induced by the virus
same,inhibition at 7500 µM,"[2]; Human alphaherpesvirus 1, Vero, 48 h, read-out: inhibition of viral replication compared to the control",60%
same,glutathione peroxydase activity compared to that in the presence of GSH,[6],1.8%
same,toxic effects in uninfected Vero cells,[7],does not induce any toxic effects
same,activity against the strain TK− compared with the wild type strain,[8],less active
same,HSV-1 TK− titer,"[8]; 5 mM, 24 h",2.59 × 10^5 pfu/ml
same,HSV-1 TK− titer,"[8]; 5 mM, 48 h",2.42 × 10^6 pfu/ml
same,HSV-1 TK− titer,"[8]; 5 mM, 72 h",2.13 × 10^6 pfu/ml
same,HSV-1 TK− titer,"[8]; 7.5 mM, 24 h",1.59 × 10^5 pfu/ml
same,HSV-1 TK− titer,"[8]; 7.5 mM, 48 h",2.56 × 10^5 pfu/ml
same,HSV-1 TK− titer,"[8]; 7.5 mM, 72 h",4.33 × 10^5 pfu/ml
same,inhibition of virus titer,"[8]; 7.5 mM, 72 h after infection",approximately 1 log
same,HSV-1 TK− titer,"[8]; 10 mM, 24 h",1.53 × 10^5 pfu/ml
same,HSV-1 TK− titer,"[8]; 10 mM, 48 h",2.6 × 10^5 pfu/ml
same,HSV-1 TK− titer,"[8]; 10 mM, 72 h",3.44 × 10^5 pfu/ml
same,virus in the supernatant of treated cells,[3]; 7.5 mM,no viruses were found
same,inhibition at 5000 µM,[3]; 24 h p.i.,88%
same,inhibition at 5000 µM,[3]; 48 h p.i.,93%
same,EC50,[3],3.6 mM
CCCCCCCC(=O)NC(CCC(=O)NC(CS)C(=O)NCC(=O)O)C(=O)O (stereo not drawn) [GSH-C8],toxic effect or change in cell morphology,[5],marked toxic effects
